Data as given in paper PMC3418399 (Molecular microbiology, 2012).
Starred links: 1 amine or outer side, 2 acyl side, 3 side chain; linkers in the order of their positions; H or OH if unused. Positions of bridges follow the written chain, without caps; N, C: chain ends. Non-standard residues stand in square brackets, D forms with d. Residues, ends and D or L forms follow the SMILES beside them. *: point of attachment. hTyr(3S-OH,4S-OH,3'-OSO3H) = N[C@H](C(=O)O)[C@H](O)[C@@H](O)c1ccc(O)c(OS(=O)(=O)O)c1; Orn(4R-OH,5R-OH) = O=C([C@H](C[C@@H](O)[C@@H](O)N[*:3])N[*:1])[*:2]; Pro(3S-OH,4S-Me) = C[C@H]1CN[C@H](C(=O)O)[C@H]1O; X1 = CCCCCOc1ccc(-c2cc(-c3ccc(C(=O)*)cc3)no2)cc1; Gln(3R-OH) = NC(=O)C[C@@H](O)[C@H](N)C(=O)O; Hyp = O=C(O)[C@@H]1C[C@@H](O)CN1

Tests used:
[1] = system: EL6 (CaCdr1p Q1445R); assay: MIC, liquid microdilution; type: cell-based, Saccharomyces cerevisiae; details: 48 h
[2] = system: AD/pABC3 (Control); assay: MIC, liquid microdilution; type: cell-based, Saccharomyces cerevisiae; details: 48 h
[3] = system: EL1/TM2 (CaCdr1p G547R); assay: MIC, liquid microdilution; type: cell-based, Saccharomyces cerevisiae; details: 48 h
[4] = system: AD/CDR1 (Wild type CaCdr1p); assay: MIC, liquid microdilution; type: cell-based, Saccharomyces cerevisiae; details: 48 h
[5] = system: TM5 (CaCdr1p V674F); assay: MIC, liquid microdilution; type: cell-based, Saccharomyces cerevisiae; details: 48 h
[6] = system: EL4-1 (CaCdr1p Q1226K); assay: MIC, liquid microdilution; type: cell-based, Saccharomyces cerevisiae; details: 48 h
[7] = system: EL4-2 (CaCdr1p Q1226R); assay: MIC, liquid microdilution; type: cell-based, Saccharomyces cerevisiae; details: 48 h
[8] = system: EL3 (CaCdr1p Q714K); assay: MIC, liquid microdilution; type: cell-based, Saccharomyces cerevisiae; details: 48 h
[9] = system: AD/CDR1 (Wild type CaCdr1p; AD/CaCDR1B); assay: Agarose diffusion FLC chemosensitization assay; type: cell-based, Saccharomyces cerevisiae; details: ~6 nmole/disk, agarose diffusion, FLC 40 μg ml^−1
[10] = biological target: Cdr1p ATPase (Candida albicans, UniProt P43071); assay: CaCdr1p ATPase inhibition assay; type: biochemical; details: read-out: IC50 Cdr1p ATPase; wild type CaCdr1p, oligomycin-sensitive ATPase, pH 7.5
[11] = biological target: T1, Pma1p ATPase (Saccharomyces cerevisiae, UniProt P05030); assay: Pma1p ATPase assay; type: biochemical; details: read-out: IC50 Pma1p ATPase; pH 7.0, 10 μM oligomycin
T1 sequence (P05030 1-918): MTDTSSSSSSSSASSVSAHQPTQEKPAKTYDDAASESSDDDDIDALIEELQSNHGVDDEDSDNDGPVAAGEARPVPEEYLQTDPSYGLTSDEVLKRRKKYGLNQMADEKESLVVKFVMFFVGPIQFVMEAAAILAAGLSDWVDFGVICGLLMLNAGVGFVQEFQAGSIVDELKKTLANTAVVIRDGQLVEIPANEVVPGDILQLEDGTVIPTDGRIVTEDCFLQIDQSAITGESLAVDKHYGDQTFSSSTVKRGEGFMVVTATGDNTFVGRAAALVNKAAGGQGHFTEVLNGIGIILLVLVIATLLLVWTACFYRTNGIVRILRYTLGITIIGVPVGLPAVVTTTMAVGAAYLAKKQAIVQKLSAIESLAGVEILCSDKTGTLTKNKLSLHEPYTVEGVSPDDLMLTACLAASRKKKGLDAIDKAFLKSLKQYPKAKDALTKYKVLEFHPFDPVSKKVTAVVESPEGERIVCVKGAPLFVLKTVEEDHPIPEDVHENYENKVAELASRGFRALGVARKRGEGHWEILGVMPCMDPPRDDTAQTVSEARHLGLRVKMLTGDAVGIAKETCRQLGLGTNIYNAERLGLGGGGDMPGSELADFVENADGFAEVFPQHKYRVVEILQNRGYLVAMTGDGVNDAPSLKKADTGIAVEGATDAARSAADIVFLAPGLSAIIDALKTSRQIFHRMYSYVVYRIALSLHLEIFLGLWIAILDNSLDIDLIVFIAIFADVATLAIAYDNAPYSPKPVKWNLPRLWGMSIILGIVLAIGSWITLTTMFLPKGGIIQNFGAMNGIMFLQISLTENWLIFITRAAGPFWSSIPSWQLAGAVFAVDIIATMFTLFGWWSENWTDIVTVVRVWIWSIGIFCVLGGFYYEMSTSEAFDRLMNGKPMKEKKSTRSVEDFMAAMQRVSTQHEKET

[12] = EL6, Q1445R, milbemycins and micafungin, I95, CSM pH 7.0, 30°C
[13] = AD/pABC3, Control, milbemycins and micafungin, I95, CSM pH 7.0, 30°C
[14] = EL1/TM2, G547R, milbemycins and micafungin, I95, CSM pH 7.0, 30°C
[15] = AD/CDR1, Wild type, milbemycins and micafungin, I95, CSM pH 7.0, 30°C
[16] = TM5, V674F, milbemycins and micafungin, I95, CSM pH 7.0, 30°C
[17] = EL4-1, Q1226K, milbemycins and micafungin, I95, CSM pH 7.0, 30°C
[18] = EL4-2, Q1226R, milbemycins and micafungin, I95, CSM pH 7.0, 30°C
[19] = EL3, Q714K, milbemycins and micafungin, I95, CSM pH 7.0, 30°C

Cdr1p ATPase, sequence (P43071 whole entry): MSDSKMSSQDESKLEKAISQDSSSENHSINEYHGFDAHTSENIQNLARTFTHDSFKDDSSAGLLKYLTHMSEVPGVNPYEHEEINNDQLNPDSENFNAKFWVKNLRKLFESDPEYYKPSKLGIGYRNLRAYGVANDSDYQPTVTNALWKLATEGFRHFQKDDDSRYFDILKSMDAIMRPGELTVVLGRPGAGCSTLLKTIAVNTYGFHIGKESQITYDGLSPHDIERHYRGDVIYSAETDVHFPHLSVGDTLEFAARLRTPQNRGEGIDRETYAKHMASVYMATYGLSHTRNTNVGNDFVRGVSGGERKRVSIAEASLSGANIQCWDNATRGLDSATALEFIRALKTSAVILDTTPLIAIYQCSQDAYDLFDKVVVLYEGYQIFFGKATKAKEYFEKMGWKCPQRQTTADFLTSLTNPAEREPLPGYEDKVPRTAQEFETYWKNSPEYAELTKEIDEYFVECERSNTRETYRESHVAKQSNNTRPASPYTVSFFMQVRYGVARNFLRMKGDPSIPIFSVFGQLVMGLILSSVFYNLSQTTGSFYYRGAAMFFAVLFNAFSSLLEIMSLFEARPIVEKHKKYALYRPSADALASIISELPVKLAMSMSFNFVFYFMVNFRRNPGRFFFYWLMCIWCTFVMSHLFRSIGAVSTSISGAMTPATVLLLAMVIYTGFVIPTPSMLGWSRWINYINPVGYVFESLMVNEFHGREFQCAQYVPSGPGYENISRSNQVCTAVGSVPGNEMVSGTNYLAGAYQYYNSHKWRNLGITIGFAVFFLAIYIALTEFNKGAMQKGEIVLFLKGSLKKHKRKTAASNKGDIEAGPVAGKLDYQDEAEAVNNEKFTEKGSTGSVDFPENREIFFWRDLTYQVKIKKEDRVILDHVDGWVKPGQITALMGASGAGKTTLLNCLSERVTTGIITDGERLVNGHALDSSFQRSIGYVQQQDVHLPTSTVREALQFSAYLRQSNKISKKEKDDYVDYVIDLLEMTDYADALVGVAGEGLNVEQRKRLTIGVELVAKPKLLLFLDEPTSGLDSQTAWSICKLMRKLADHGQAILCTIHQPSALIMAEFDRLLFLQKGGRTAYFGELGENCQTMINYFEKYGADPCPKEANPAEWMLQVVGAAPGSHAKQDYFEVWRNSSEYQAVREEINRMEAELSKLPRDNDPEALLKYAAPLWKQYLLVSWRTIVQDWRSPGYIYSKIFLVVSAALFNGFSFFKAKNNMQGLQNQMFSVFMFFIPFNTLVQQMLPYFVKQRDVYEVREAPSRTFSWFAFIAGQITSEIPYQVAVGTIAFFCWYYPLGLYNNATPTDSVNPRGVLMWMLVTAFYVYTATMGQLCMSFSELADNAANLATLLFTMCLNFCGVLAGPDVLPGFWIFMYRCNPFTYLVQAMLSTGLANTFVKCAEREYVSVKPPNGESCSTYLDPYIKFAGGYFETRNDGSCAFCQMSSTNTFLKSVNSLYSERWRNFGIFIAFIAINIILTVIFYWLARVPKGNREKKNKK

Compound	MIC ([1]; Saccharomyces cerevisiae, pH 7)	MIC ([2]; Saccharomyces cerevisiae, pH 7)	MIC ([3]; Saccharomyces cerevisiae, pH 7)	MIC ([4]; Saccharomyces cerevisiae, pH 7)	MIC ([5]; Saccharomyces cerevisiae, pH 7)	MIC ([6]; Saccharomyces cerevisiae, pH 7)	MIC ([7]; Saccharomyces cerevisiae, pH 7)	MIC ([8]; Saccharomyces cerevisiae, pH 7)	further results
C[C@@H]1C[C@@H]([C@H](O)CC2CC(=O)NC(=O)C2)C(=O)[C@@H](C)C1 [Cycloheximide]	2 µg/mL	0.008 µg/mL	0.5 µg/mL	1 µg/mL	1 µg/mL	0.5 µg/mL	1 µg/mL	1 µg/mL	
C=CC[C@@H]1/C=C(\C)C[C@H](C)C[C@H](OC)[C@H]2O[C@@](O)(C(=O)C(=O)N3CCCC[C@H]3C(=O)O[C@H](/C(C)=C/[C@@H]3CC[C@@H](O)[C@H](OC)C3)[C@H](C)[C@@H](O)CC1=O)[C@H](C)C[C@@H]2OC [FK506]	40 µg/mL	0.313 µg/mL	40 µg/mL	40 µg/mL	40 µg/mL	40 µg/mL	40 µg/mL	40 µg/mL	
OC(Cn1cncn1)(Cn1cncn1)c1ccc(F)cc1F [Fluconazole]	240 µg/mL	0.5 µg/mL	100 µg/mL	240 µg/mL	160 µg/mL	80 µg/mL	240 µg/mL	240 µg/mL	
CC(=O)N1CCN(c2ccc(OCC3COC(Cn4ccnc4)(c4ccc(Cl)cc4Cl)O3)cc2)CC1 (stereo not drawn) [Ketoconazole]	4 µg/mL	0.156 µg/mL	1 µg/mL	4 µg/mL	3 µg/mL	1 µg/mL	4 µg/mL	4 µg/mL	
CCCCCOc1ccc(-c2cc(-c3ccc(C(=O)N[C@H]4C[C@@H](O)[C@@H](O)NC(=O)[C@@H]5[C@@H](O)[C@@H](C)CN5C(=O)[C@H]([C@H](O)CC(N)=O)NC(=O)[C@H]([C@H](O)[C@@H](O)c5ccc(O)c(OS(=O)(=O)O)c5)NC(=O)[C@@H]5C[C@@H](O)CN5C(=O)[C@H]([C@@H](C)O)NC4=O)cc3)no2)cc1 [Micafungin] (X1-[Orn(4R-OH,5R-OH)]T[Hyp][hTyr(3S-OH,4S-OH,3'-OSO3H)][Gln(3R-OH)][Pro(3S-OH,4S-Me)]; lactam 1-C)		0.25 µg/mL	0.125 µg/mL	0.125 µg/mL	0.125 µg/mL	0.125 µg/mL	0.125 µg/mL		
Clc1ccc(COC(Cn2ccnc2)c2ccc(Cl)cc2Cl)c(Cl)c1 (stereo not drawn) [Miconazole]	3 µg/mL	0.156 µg/mL	1 µg/mL	2.5 µg/mL	2 µg/mL	1 µg/mL	3 µg/mL	2.5 µg/mL	
CC(C)=CC(=O)OCC1=C[C@H]2C(=O)O[C@H]3C[C@@H](C/C=C(\C)C[C@@H](C)/C=C/C=C4\CO[C@H]([C@@H]1O)[C@@]42O)O[C@@]1(CC[C@H](C)[C@@H](C)O1)C3 [Milbemycin α11]									MIC [1, 12]: 4 µg/mL; MIC [2, 13]: 4 µg/mL; MIC [3, 14]: 8 µg/mL; MIC [4, 15]: 4 µg/mL; MIC [5, 16]: >8 µg/mL; MIC [6, 17]: 8 µg/mL; MIC [7, 18]: 4 µg/mL; MIC [8, 19]: 4 µg/mL
C/C=C(\C)C(=O)OCC1=C[C@H]2C(=O)O[C@H]3C[C@@H](C/C=C(\C)C[C@@H](C)/C=C/C=C4\CO[C@H]([C@@H]1O)[C@@]42O)O[C@@]1(CC[C@H](C)[C@@H](C)O1)C3 [Milbemycin α20]									MIC [1, 12]: >8 µg/mL; MIC [2, 13]: >8 µg/mL; MIC [3, 14]: >8 µg/mL; MIC [4, 15]: >8 µg/mL; MIC [5, 16]: >8 µg/mL; MIC [6, 17]: >8 µg/mL; MIC [7, 18]: >8 µg/mL; MIC [8, 19]: >8 µg/mL
CC1=C[C@H]2C(=O)O[C@H]3C[C@@H](C/C=C(\C)C[C@@H](C)/C=C/C=C(\C)[C@]2(O)[C@H](O)[C@@H]1O)O[C@@]1(CC[C@H](C)[C@@H](C)O1)C3 [Milbemycin β11]									MIC [1, 12]: >8 µg/mL; MIC [2, 13]: >8 µg/mL; MIC [3, 14]: >8 µg/mL; MIC [4, 15]: >8 µg/mL; MIC [5, 16]: >8 µg/mL; MIC [6, 17]: >8 µg/mL; MIC [7, 18]: >8 µg/mL; MIC [8, 19]: >8 µg/mL
CC/N=c1\cc2oc3cc(NCC)c(C)cc3c(-c3ccccc3C(=O)OCC)c-2cc1C [Rhodamine 6G]	75 µM	1 µM	50 µM	75 µM	50 µM	50 µM	50 µM	75 µM	
COC(=O)c1ccccc1-c1c2ccc(=N)cc-2oc2cc(N)ccc12 [Rhodamine 123]	200 µM	8 µM	150 µM	300 µM	150 µM	150 µM	200 µM	200 µM	
CN1CCN(CCCN2c3ccccc3Sc3ccc(C(F)(F)F)cc32)CC1 [Trifluoperazine]	80 µM	5 µM	40 µM	40 µM	20 µM	40 µM	40 µM	40 µM	
C[C@@H](c1ncncc1F)[C@](O)(Cn1cncn1)c1ccc(F)cc1F [Voriconazole]	10 µg/mL	0.156 µg/mL	2.5 µg/mL	8 µg/mL	4 µg/mL	2.5 µg/mL	6 µg/mL	8 µg/mL	
D-NH2-FFKWQR(Mtr)KK-CONH2									chemosensitization of cells overexpressing CaCdr1p to FLC [9]: chemosensitizing activity
D-NH2-FFKWQRRR-CONH2									IC50 [10]: 2000 nM
D-NH2-FFKWQRRR-CONH2 (H-[dF][dF][dK][dW][dQ][dR][dR][dR]-NH2)									IC50 [11]: 5000 nM
D-NH2-FFKWQRRR-CONH2 + Mtr [RC21]									IC50 [10]: 1300 nM
Enniatin									MIC ([1]; EL6, Q1445R, cycloheximide, enniatin and FK506, CSM pH 7.0, 30°C): 4 µg/mL; MIC ([2]; AD/pABC3, Control, cycloheximide, enniatin and FK506, CSM pH 7.0, 30°C): 4 µg/mL; MIC ([3]; EL1/TM2, G547R, cycloheximide, enniatin and FK506, CSM pH 7.0, 30°C): 4 µg/mL; MIC ([4]; AD/CDR1, Wild type, cycloheximide, enniatin and FK506, CSM pH 7.0, 30°C): 4 µg/mL; MIC ([5]; TM5, V674F, cycloheximide, enniatin and FK506, CSM pH 7.0, 30°C): 4 µg/mL; MIC ([6]; EL4-1, Q1226K, cycloheximide, enniatin and FK506, CSM pH 7.0, 30°C): 4 µg/mL; MIC ([7]; EL4-2, Q1226R, cycloheximide, enniatin and FK506, CSM pH 7.0, 30°C): 4 µg/mL; MIC ([8]; EL3, Q714K, cycloheximide, enniatin and FK506, CSM pH 7.0, 30°C): 4 µg/mL
Milbemycin α25									MIC [1, 12]: >8 µg/mL; MIC [2, 13]: 8 µg/mL; MIC [3, 14]: 8 µg/mL; MIC [4, 15]: 8 µg/mL; MIC [5, 16]: >8 µg/mL; MIC [6, 17]: 8 µg/mL; MIC [7, 18]: >8 µg/mL; MIC [8, 19]: >8 µg/mL
Milbemycin α26									MIC [1, 12]: 8 µg/mL; MIC [2, 13]: 8 µg/mL; MIC [3, 14]: 8 µg/mL; MIC [4, 15]: 8 µg/mL; MIC [5, 16]: 8 µg/mL; MIC [6, 17]: 8 µg/mL; MIC [7, 18]: 8 µg/mL; MIC [8, 19]: 8 µg/mL
Milbemycin β9									MIC [1, 12]: >8 µg/mL; MIC [2, 13]: 8 µg/mL; MIC [3, 14]: >8 µg/mL; MIC [4, 15]: >8 µg/mL; MIC [5, 16]: >8 µg/mL; MIC [6, 17]: >8 µg/mL; MIC [7, 18]: >8 µg/mL; MIC [8, 19]: 8 µg/mL
